Experimental data from PMC7768359, “Synthesis of Platinum(II) Complexes with Some 1-Methylnitropyrazoles and In Vitro Research on Their Cytotoxic Activity” (Pharmaceuticals, 2020).

Assays:
[1] = system: HL-60 cells; assay: Determination of apoptosis by Annexin V / PI staining; assay type: cell-based, human; settings: 48 h
Procedure: To establish how compounds 1 and 2 influence the cell cycle and cell death, the HL-60 human promyelocytic leukemia cell line was used. The results are outlined in the Figure 7 and Figure 8, respectively. […] This led to disturbances in the cell cycle progression, expressed as a significant decrease in G0/G1 and S phase, compared to the untreated control (Figure 7).
The HL-60 cells and compounds tested were prepared in the same way as for analysis of the cell cycle distribution. The cells were also exposed to camptothecin (2 µg/mL; Sigma-Aldrich, Steinheim, Germany) as a positive control of apoptosis induction. After 48 h of incubation, or in the case of camptothecin after 24 h, the cells were collected and washed in PBS (HIIET, Wroclaw, Poland) supplemented with 2% of fetal bovine serum and counted in a hemacytometer. The cells (2 × 10^5) were washed twice in PBS. Next, cells were suspended in 200 μL of the mixture of HEPES buffer: 10 mM HEPES, 150 mM NaCl, 5 mM KCl, 1 mM MgCl2, 1.8 mM CaCl2, (HIIET, Wroclaw, Poland) and Annexin V-FITC (Alexis Biochemicals, San Diego, CA, USA), each time freshly prepared according to the manufacturer’s recommendations. After 15 min of incubation in darkness at room temperature, propidium iodide (PI) solution (0.1 mg/mL) was added prior to analysis to give a final concentration of 10 µg/mL. […] Data were analyzed in a BD FACS Diva 6.2 program. […]

[2] = Reaction with L-glutathione, UV absorbance at 260 nm; assay type: physicochemical; settings: 2 mM GSH, pH 7.4, 37 °C
Source text: Platinum compounds have a strong ability to react with sulfur donor ligands. […] These side reactions are considered as playing an important role in mechanisms of tumor resistance to platinum drugs, their inactivation, and toxic side effects. The two most important endogenous thiols to which platinum complexes can bind after intravenous administration or after they enter the cancer cell are reduced L-glutathione (GSH) and metallothionein (MT). In the present work, we investigated reactions of GSH with compounds 1 and 2, measuring the UV absorbance at 260 nm (which indicates the formation of Pt–S and S–S bonds) as a function of time using a double-beam spectrophotometer (Figure 6). […] Despite the better solubility of tested complexes in acetone, dioxane was used in this experiment due to its lack of absorption of UV radiation at 260 nm in contrast to acetone that strongly absorbs at this wavelength preventing a correct measurement of absorbance changes.
The solutions of compounds 1 or 2 in dioxane (30 µL) at 60 mM concentration were added to 3 mL of 2 mM solution of GSH (reduced L-glutathione) previously saturated with argon in the medium containing 10 mmol/L NaCl and 10 mmol/L Tris xHCl buffer, pH 7.4, warmed to 37 °C, reaching a final concentration of […] of the platinum complex. The reaction progress during incubation at 37 °C was monitored using UV absorption spectrometry at 260 nm. […]

[3] = system: MCF-7 (breast adenocarcinoma); assay: In vitro cytotoxicity, sulforhodamine B assay; assay type: cell-based, human; settings: for growth inhibition stronger than reference cisplatin (factor): MCF-7
Procedure: (§1) Determination of the cytotoxic activity of compounds tested was performed separately in the normoxia or hypoxia conditions to reveal their potentially bioreductive properties. The experiment was carried out on three human cancer cell lines: MCF-7 breast, ES-2 ovarian and A549 lung adenocarcinoma as well as normal murine embryonic fibroblast BALB/3T3 cell line. In order to facilitate the preparation of solutions of the tested compounds, their initial solutions for dilution were made by dissolving the compounds in acetone. For this purpose, it was not possible to use more polar aprotic solvents (DMSO, DMF) due to the rapid isomerization of some of the tested complexes under their influence.
(§2) All the cell lines were cultured at 37 °C in a humid atmosphere containing 5% CO2. Additionally, in the case of cytotoxicity assay with hypoxic conditions, the cells (MCF-7, ES-2, A549) were maintained at 37 °C in a humid atmosphere containing 5% CO2 and 1% O2 during the entire experiment.
(§3) Twenty-four hours before adding the tested compounds, all cell lines were seeded in 96-well plates ([…] AG & Co, Nümbrecht Germany) in an appropriate media with 10^4 cells per well. All cell lines were exposed to each compound tested at four different concentrations for 72 h. […] Additionally, all cell lines were exposed to acetone (Avantor Performance Materials, Gliwice, Poland) (the solvent used for tested compounds) at concentrations corresponding to those present in tested compounds’ dilutions.
(§4) After 72 h of cell incubation with the compounds tested, the sulforhodamine B (SRB) assay was performed as described by Shekan et al. with minor modifications. The cells were fixed in situ by adding 50 µL per well of cold 50% trichloroacetic acid (Avantor Performance Materials, Gliwice, Poland) and were incubated at 4 °C for one hour. Following that, wells were washed five times with water and air dried. Next, 50 µL of 0.4% solution of sulforhodamine B (Sigma-Aldrich, Steinheim, Germany) in 1% acetic acid (Avantor Performance Materials, Gliwice, Poland) were added to each well and plates were incubated at room temperature for 0.5 h. After incubation time, the unbound dye was removed by washing plates five times with 1% acetic acid, whereas stains bound to cells was solubilized with 10 mM Tris base (Sigma-Aldrich, Steinheim, Germany). The absorbance of each solution was read by the Multiskan RC photometer (Labsystems Diagnostics Oy, Vantaa, Finland) at a 540 nm wavelength. Results are presented as mean IC50 (concentration of the compound tested that inhibits cell proliferation by 50%) ± standard deviation. IC50 values were calculated for each experiment on the basis of four different concentrations using Cheburator software, as described by Nevozhay. The tested compounds at each concentration were tested in triplicates in a single experiment and each experiment was repeated at least three times independently.

[4] = system: A549 (lung adenocarcinoma); assay: In vitro cytotoxicity, sulforhodamine B assay; assay type: cell-based, human; settings: for IC50 ± SD / IC50: 72 h
Procedure: as §1, §2, §3, §4

| SMILES | proapoptotic activity (Annexin V / propidium iodide) ([1]; HL-60, 80 µM) | half-time of the reaction with GSH [2] | IC50 ± SD ([3]; MCF-7, hypoxia (1% O2), 72 h) | IC50 ([3]; MCF-7, normoxia, 72 h) | IC50 ± SD ([4]; A549, hypoxia (1% O2)) | IC50 ([4]; A549, normoxia) | effect on the number of necrotic and late apoptotic HL-60 cells ([1]; compared to 0.3 µM cisplatin and control) | growth inhibition stronger than reference cisplatin (factor) [3] | IC50 ([3]; MCF-7, hypoxia (1% O2), 72 h) | effect stronger than reference cisplatin (times) ([4]; A549) | IC50 ([4]; A549, hypoxia (1% O2)) |
| --- | --- | --- | --- | --- | --- | --- | --- | --- | --- | --- | --- |
| Cn1cc([N+](=O)[O-])c[n+]1[Pt@SP2-2]([Cl])([Cl])[n+]1cc([N+](=O)[O-])cn1C [Compound 1, cis-dichloridobis(1-methyl-4-nitropyrazole)platinum(II)] | statistically significant increase in early and late apoptotic cells | 83 min | inactive | 74.7 ± 36.1 µM | inactive | 103 ± 28.8 µM | – | – | – | – | – |
| Cn1cc([N+](=O)[O-])c[n+]1[Pt@SP3-2]([Cl])([Cl])[n+]1cc([N+](=O)[O-])cn1C [Compound 2, trans-dichloridobis(1-methyl-4-nitropyrazole)platinum(II)] | – | 13 min | – | 1.8 ± 0.9 µM | – | 3.7 ± 2.9 µM | did not show any substantial effect | about seven times | 11.1 ± 5.6 µM | 2.6 times | 7.7 ± 7.4 µM |
| Cn1c([N+](=O)[O-])cc[n+]1[Pt@SP2-2]([Cl])([Cl])[n+]1ccc([N+](=O)[O-])n1C [Compound 3, cis-dichloridobis(1-methyl-5-nitropyrazole)platinum(II)] | – | – | – | 10.1 ± 1.4 µM | inactive | 53.4 ± 10 µM | – | – | 41.5 ± 39.9 µM | – | – |
| Cn1c([N+](=O)[O-])cc[n+]1[Pt@SP3-2]([Cl])([Cl])[n+]1ccc([N+](=O)[O-])n1C [Compound 4, trans-dichloridobis(1-methyl-5-nitropyrazole)platinum(II)] | – | – | – | 7.8 ± 1.3 µM | inactive | 31 ± 9.5 µM | – | almost two times | 32 ± 9.2 µM | – | – |
